In patent US20260356851A1, “TRICYCLIC COMPOUNDS AND USES THEREOF” (HUTCHMED LIMITED, priority 2023, published 2026):
Like-named read-outs stand apart in the source and are kept apart here.

Legend:
Type in all cases: cell-based
[1] = target: T1, pERK1/2 (Thr202/Tyr204), NCI-1H441 (KRAS G12V) (Homo sapiens, UniProt P01116, G12V); assay: Assay of intracellular pERK1/2 (Thr202/Tyr204) phosphorylation in NCI-H441 cells (KRAS G12V)
T1 construct: pERK1/2 HTRF read-out
Description: (§1) Example 2: Assay of intracellular pERK1/2 (Thr202/Tyr204)phosphorylation
(§2) 1. Reagents and materials: • pERK1/2 (Thr202/Tyr2O4) HIRE kit, Cisbio, Cat #64ERKPEH; • OptiPlate™-384-well plate, PerkinElmer, Cat #6007299; • 96-well plate, Coming, Cat #353072; • Instrument: EnVision2104, PerkinElmer; • Cell lines: NCI-1H358 (KRAS G12C), ATCC, CRL-5807; PANC-1 (KRAS G121D), ATCC, CRL-1469; NCI-1H441 (KRAS G12V), ATCC, HTB-174.
(§3) 2. Preparation of Reaction Solutions
(§4) • A test compound was dissolved in DMSO, diluted to 200.0 μM and further diluted 3-fold to prepare a series of test compounds at concentrations of 66.7, 22.2, 7.4, 2.5, 0.82, 0.27, 0.09 μM etc. Then 10 μL of the compound at different dilution concentrations was added to 190 μL of a DMEM medium to prepare a 10× test compound; • 1× cell lysis buffer: 4× cell lysis stock solution (provided by the kit) was diluted 4-fold with deionized water, and then 10% 100× blocking stock solution (provided by the kit) was added thereto. • pERK1/2 detection solution (prepared just before use): the pERK1/2 d2 antibody (provided by the kit) and pERK1/2 Cryptate antibody (provided by the kit) were diluted with the detection solution (provided by the kit) at a ratio of 1:1:38.
(§5) • Cells were inoculated into a 96-well plate (100 μL/well) at a density of 10000-12000/well. No cell was inoculated into a negative control well, and only the cell medium was added at 100 μL/well. The plate was placed in a cell incubator at 5% CO2 and 37° C. overnight. • 10 μL of the 10× test compound was added to the 100 μL cell culture 96-well plate; both the positive control well (that is, the control hole without chemical compound treatment) and the negative control well were charged with 10 μL of a 5% DMSO culture solution; and the plate was cultured in a cell incubator at 5% CO2 and 37° C. for 2 days. • The medium in the 96-well plate was removed; 50 μL of the 1× cell lysis buffer was added to each of the wells; the plate was placed in a microplate shaker; and lysis under shaking was carried out at 900 rpm at room temperature for 1 hour. • 16 μL of the lysis buffer in the 96-well plate was taken and transferred to a 384-well plate, followed by centrifugation at 1000 rpm for 30 s; then 4 μL of pERK1/2 detection solution was added to each well, followed by centrifugation at 1000 rpm for 30 s; and the 384-well plate was sealed with a sealing membrane and incubated at 25° C. on a low-speed shaker at 100 rpm in the dark for 2 hours. • The fluorescence value (RFU) of each well was detected on EnVision2104, with an emission wavelength 1 being 665 nm and an emission wavelength 2 being 615 nm.
(§6) Fluorescence ratio=fluorescence value665 nm/fluorescence value615 nm
(§7) Inhibition rate (%)=100−((fluorescence ratio of compound well−fluorescence ratio of negative control well)/(fluorescence ratio of positive control well−fluorescence ratio of negative control well))×100
(§8) wherein: • the fluorescence ratio of compound well refers to the fluorescence ratio of the well containing the test compounds; • the fluorescence ratio of negative control well refers to the fluorescence ratio of the cell-free control well; • the fluorescence ratio of positive control well refers to the fluorescence ratio of the cell well treated with 0.5% DMSO.
(§9) IC50 value: obtained by calculation using XL-Fit 5.0 software.

[2] = target: T2, pERK1/2 (Thr202/Tyr204), NCI-1H358 (KRAS G12C) (Homo sapiens, UniProt P01116, G12C); assay: Assay of intracellular pERK1/2 (Thr202/Tyr204) phosphorylation in NCI-H358 cells (KRAS G12C)
T2 construct: pERK1/2 HTRF read-out
T2 sequence (P01116 1-188 isoform P01116-2 G12C): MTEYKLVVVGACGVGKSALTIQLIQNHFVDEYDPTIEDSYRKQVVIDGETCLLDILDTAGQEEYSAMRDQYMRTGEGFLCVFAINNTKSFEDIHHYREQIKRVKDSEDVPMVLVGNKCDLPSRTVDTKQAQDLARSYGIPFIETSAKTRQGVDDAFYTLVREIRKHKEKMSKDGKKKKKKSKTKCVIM
Description: as §1, §2, §3, §4, §5, §6, §7, §8, §9

[3] = target: T3, pERK1/2 (Thr202/Tyr204), PANC-1 (KRAS G121D) (Homo sapiens, UniProt P01116, G12D); assay: Assay of intracellular pERK1/2 (Thr202/Tyr204) phosphorylation in PANC-1 cells (KRAS G12D)
T3 construct: pERK1/2 HTRF read-out
T3 sequence (P01116 1-188 isoform P01116-2 G12D): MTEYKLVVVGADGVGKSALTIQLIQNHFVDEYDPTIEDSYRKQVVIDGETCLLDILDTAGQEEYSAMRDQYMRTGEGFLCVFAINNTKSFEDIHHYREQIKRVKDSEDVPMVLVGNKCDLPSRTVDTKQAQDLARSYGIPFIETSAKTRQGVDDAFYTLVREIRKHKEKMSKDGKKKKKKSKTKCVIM
Description: as §1, §2, §3, §4, §5, §6, §7, §8, §9

[4] = pERK1/2, 2 days, read-out: NCI-H441 (KRAS G12V) IC50
[5] = pERK1/2, 2 days, read-out: NCI-H358 (KRAS G12C) IC50
[6] = pERK1/2, 2 days, read-out: PANC-1 (KRAS G12D) IC50
[7] = read-out: NCI-H441 (KRAS G12V) IC50, pERK1/2, 2 days
[8] = read-out: NCI-H358 (KRAS G12C) IC50, pERK1/2, 2 days
[9] = read-out: PANC-1 (KRAS G12D) IC50, pERK1/2, 2 days

T1 sequence (P01116 1-188 isoform P01116-2 G12V): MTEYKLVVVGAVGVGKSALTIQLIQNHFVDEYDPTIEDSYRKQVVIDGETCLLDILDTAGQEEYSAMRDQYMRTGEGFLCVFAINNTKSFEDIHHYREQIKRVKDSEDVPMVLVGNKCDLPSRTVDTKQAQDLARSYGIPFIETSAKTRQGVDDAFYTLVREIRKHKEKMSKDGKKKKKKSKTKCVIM

With `CC(c1cccnc1N)N1CCOc2nc(-c3cc(O)cc(F)c3C3CC3)c(F)c3nc(OC[C@@H]4CCCN4C)nc1c23` (single isomer, unassigned) [Compound 34, 3-(10-((R or S)-1-(2-aminopyridin-3-yl)ethyl)-4-fluoro-2-(((S)-1-methylpyrrolidin-2-yl)methoxy)-9,10-dihydro-8H-7-oxa-1,3,6,10-tetraazacyclohepta[de]naphthalen-5-yl)-4-cyclopropyl-5-fluorophenol] the IC50 [1, 4] was greater than 1000 nM, the IC50 [2, 5] was greater than 1000 nM and the IC50 [3, 6] was greater than 1000 nM.
`CCc1c(F)ccc2cc(OC(=O)NC)cc(-c3nc4c5c(nc(OC[C@@]67CCCN6C[C@H](F)C7)nc5c3F)N(C(C)c3cccnc3N)[C@@H](C)CO4)c12` (stereo partly drawn) [Compound 296] gave an IC50 [1, 7] of 2 nM, an IC50 [2, 8] of 0.5 nM and an IC50 [3, 9] of 0.3 nM.
Work on `CCc1c(F)ccc2cc(O)cc(-c3nc4c5c(nc(OC[C@@]67CCCN6C[C@H](F)C7)nc5c3F)N(C(C)c3ccccc3N)[C@@H](C)CO4)c12` (stereo partly drawn) [Compound 298] yielded an IC50 [1, 4] greater than 100 nM, an IC50 [2, 5] greater than 100 nM and an IC50 [3, 6] greater than 100 nM.
In the case of `Cc1c(F)c(N)cc(-c2nc3c4c(nc(OC[C@@H]5C[C@@H](F)CN5C)nc4c2F)N(C(C)c2cccnc2N)CCO3)c1C(F)(F)F` (stereo partly drawn) [Compound 185], the IC50 [1, 4] is reported as 1 nM, the IC50 [2, 5] is reported as 0.3 nM and the IC50 [3, 6] is reported as 13 nM.
In the case of `[2H]C([2H])(Oc1nc2c3c(nc(-c4cc(N)c(F)c(C)c4C(F)(F)F)c(F)c3n1)OCCN2C(C)c1cccnc1N)[C@@H]1C[C@@H](F)CN1C([2H])([2H])[2H]` (stereo partly drawn) [Compound 149], the IC50 [1, 4] is reported as 0.9 nM, the IC50 [2, 5] is reported as 0.3 nM and the IC50 [3, 6] is reported as 7 nM.
Compound `CC(c1cccnc1N)N1CCOc2nc(-c3cc(N)cc(F)c3C(F)(F)F)c(F)c3nc(OC[C@@]45CCCN4C[C@H](F)C5)nc1c23` (stereo partly drawn) [Compound 82] has an IC50 [1, 4] of 0.8 nM, an IC50 [2, 5] of 0.8 nM and an IC50 [3, 6] of 15 nM.
`CC(c1cccnc1N)N1CCOc2nc(-c3cc(O)cc(Cl)c3C3CC3)c(F)c3nc(OC[C@@H]4CCCN4C)nc1c23` (single isomer, unassigned) [Compound 31, 3-(10-((R or S)-1-(2-aminopyridin-3-yl)ethyl)-4-fluoro-2-(((S)-1-methylpyrrolidin-2-yl)methoxy)-9,10-dihydro-8H-7-oxa-1,3,6,10-tetraazacyclohepta[de]naphthalen-5-yl)-5-chloro-4-cyclopropylphenol] showed an IC50 [1, 4] greater than 1000 nM, an IC50 [2, 5] of 405 nM and an IC50 [3, 6] greater than 1000 nM.
`CC(c1cccnc1N)N1CCOc2nc(-c3cc(N)c(F)c(F)c3F)c(F)c3nc(OC[C@@]45CCCN4C[C@H](F)C5)nc1c23` (stereo partly drawn) [Compound 158] gave an IC50 [1, 4] greater than 100 nM, an IC50 [2, 5] of 96 nM and an IC50 [3, 6] greater than 100 nM.
In the case of `Cc1c(F)c(N)cc(-c2nc3c4c(nc(OC[C@@]56CCCN5C[C@H](F)C6)nc4c2F)N(C(C)c2cccnc2N)CCO3)c1Cl` (stereo partly drawn) [Compound 204], the IC50 [1, 4] is reported as 4 nM, the IC50 [2, 5] is reported as 1 nM and the IC50 [3, 6] is reported as 49 nM.
`Cc1cc2[nH]ncc2c(-c2nc3c4c(nc(OC[C@@]56CCCN5C[C@H](F)C6)nc4c2F)N(C(C)c2cccnc2N)[C@H]2CCC[C@@H]2O3)c1C(F)(F)F` (stereo partly drawn) [Compound 393] was tested, and the IC50 [1, 4] was greater than 100 nM, the IC50 [2, 5] was greater than 100 nM and the IC50 [3, 6] was greater than 100 nM.
`Cc1n[nH]c2cc3ccccc3c(-c3cc4nc(OC[C@@]56CCCN5C[C@H](F)C6)nc5c4c(n3)OC[C@H](C)N5C(C)c3cccnc3N)c12` (stereo partly drawn) [Compound 402] gave an IC50 [1, 4] of 0.6 nM, an IC50 [2, 5] of 0.4 nM and an IC50 [3, 6] of 0.4 nM.
`C#Cc1ccc2[nH]ncc2c1-c1nc2c3c(nc(OC[C@@]45CCCN4C[C@H](F)C5)nc3c1F)N(C(C)c1cccnc1N)CCO2` (stereo partly drawn) [Compound 60] showed an IC50 [1, 4] of 806 nM, an IC50 [2, 5] of 518 nM and an IC50 [3, 6] greater than 1000 nM.
For `[2H]C1([2H])CC[C@@]2(C([2H])([2H])Oc3nc4c5c(nc(-c6cc(N)cc(C)c6C(F)(F)F)c(F)c5n3)OCCN4C(C)c3cccnc3N)C[C@@H](F)CN12` (stereo partly drawn) [Compound 105], the IC50 [1, 4] was 0.6 nM, the IC50 [2, 5] was 0.4 nM and the IC50 [3, 6] was 2 nM.
In the case of `[2H]C([2H])(Oc1nc2c3c(nc(-c4cc(N)cc(C)c4C(F)(F)F)c(F)c3n1)OCCN2C(C)c1cccnc1N)[C@@H]1C[C@@H](F)CN1C([2H])([2H])[2H]` (stereo partly drawn) [Compound 122], the IC50 [1, 4] is reported as 1 nM, the IC50 [2, 5] is reported as 0.6 nM and the IC50 [3, 6] is reported as 11 nM.
`[2H]C([2H])(Oc1nc2c3c(nc(-c4cc(N)cc(C)c4C(F)(F)F)c(F)c3n1)OCCN2C(C)c1cccnc1N)[C@@H]1C[C@@H](F)CN1C([2H])([2H])[2H]` (single isomer, unassigned) [Compound 132, 3-((R or S)-1-(5-(5-amino-3-methyl-2-(trifluoromethyl)phenyl)-4-fluoro-2-(((2S,4R)-4-fluoro-1-(methyl-d3)pyrrolidin-2-yl)methoxy-d2)-8,9-dihydro-10H-7-oxa-1,3,6,10-tetraazacyclohepta[de]naphthalen-10-yl)ethyl)pyridin-2-amine] was tested, and the IC50 [1, 4] was 1 nM, the IC50 [2, 5] was 0.4 nM and the IC50 [3, 6] was 14 nM.
In the case of `CC(c1cccnc1N)N1CCOc2nc(-c3cc(O)cc4ccc(F)c(F)c34)c(F)c3nc(OC[C@@]45CCCN4C[C@H](F)C5)nc1c23` (stereo partly drawn) [Compound 1, 4-(10-(1-(2-Aminopyridin-3-yl)ethyl)-4-fluoro-2-(((2R,7aS)-2-fluorotetrahydro-1H-pyrrolizin-7a(5H)-yl)methoxy)-9,10-dihydro-8H-7-oxa-1,3,6,10-tetraazacyclohepta[de]naphthalen-5-yl)-5,6-difluoronaphthalen-2-ol], the IC50 [1, 7] is reported as 3 nM, the IC50 [2, 8] is reported as 0.7 nM and the IC50 [3, 9] is reported as 6 nM.
For `CC(c1cccnc1N)N1CCOc2nc(-c3cc(O)cc(Cl)c3C3CC3)c(F)c3nc(OC[C@@H]4COCCN4C)nc1c23` (stereo partly drawn) [Compound 134], the IC50 [1, 4] was 34 nM, the IC50 [2, 5] was 31 nM and the IC50 [3, 6] was greater than 100 nM.
In the case of `CC(c1cccnc1N)N1CCOc2nc(-c3cc(O)cc(Cl)c3C3CC3)c(F)c3nc(OC[C@@]45CCCN4C[C@H](F)C5)nc1c23` (single isomer, unassigned) [Compound 44, 3-(10-((R or S)-1-(2-aminopyridin-3-yl)ethyl)-4-fluoro-2-(((2R,7aS)-2-fluorotetrahydro-1H-pyrrolizin-7a(5H)-yl)methoxy)-9,10-dihydro-8H-7-oxa-1,3,6,10-tetraazacyclohepta[de]naphthalen-5-yl)-5-chloro-4-cyclopropylphenol], the IC50 [1, 4] is reported as 0.6 nM, the IC50 [2, 5] is reported as 0.1 nM and the IC50 [3, 6] is reported as 3 nM.
`CC(c1cccnc1N)N1CCOc2nc(-c3cc(O)cc(F)c3C3CC3)c(F)c3nc(OC[C@@H]4CC(F)(F)CN4C)nc1c23` (single isomer, unassigned) [Compound 49, 3-(10-((R or S)-1-(2-aminopyridin-3-yl)ethyl)-2-(((S)-4,4-difluoro-1-methylpyrrolidin-2-yl)methoxy)-4-fluoro-9,10-dihydro-8H-7-oxa-1,3,6,10-tetraacyclohepta[de]naphthalen-5-yl)-4-cyclopropyl-5-fluorophenol] showed an IC50 [1, 4] of 22 nM, an IC50 [2, 5] of 15 nM and an IC50 [3, 6] of 557 nM.
